Reference: patent US8106197B2, “Aminoheteroaryl compounds as protein kinase inhibitors” (Pfizer Inc., priority 2003, dated 2012)

The compounds below were run against T1, HGFR (Homo sapiens, UniProt P08581) (assay: HGFR continuous-coupled spectrophotometric assay). Conditions: Table 6; percent c-MET inhibition at 1 μM; read-out: % inhibition.
T1 construct: purchased Upstate 14-526
Format: biochemical

T1 sequence (P08581 974-1390 limits assumed): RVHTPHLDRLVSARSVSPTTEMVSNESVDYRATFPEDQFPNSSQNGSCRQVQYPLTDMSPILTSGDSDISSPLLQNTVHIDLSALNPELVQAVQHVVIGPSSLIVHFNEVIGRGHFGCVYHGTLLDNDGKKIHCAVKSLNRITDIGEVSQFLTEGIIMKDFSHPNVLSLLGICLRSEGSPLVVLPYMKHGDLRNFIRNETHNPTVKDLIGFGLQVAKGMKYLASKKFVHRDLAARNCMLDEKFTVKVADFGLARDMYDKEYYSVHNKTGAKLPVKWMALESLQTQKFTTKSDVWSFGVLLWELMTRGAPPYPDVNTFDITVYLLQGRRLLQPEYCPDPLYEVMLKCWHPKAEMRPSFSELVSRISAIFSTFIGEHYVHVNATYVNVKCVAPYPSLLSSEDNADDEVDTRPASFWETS

| Structure (SMILES) | inhibition at 1 µM |
| --- | --- |
| CN(C)c1ccc(CNC(=O)c2cnc(N)c(OCc3c(Cl)cccc3Cl)c2)cc1 | 30% |
| Nc1ncc(C(=O)NCCc2ccc(S(N)(=O)=O)cc2)cc1OCc1c(Cl)cccc1Cl | 30% |
| Nc1ncc(C(=O)NC2CCSC2=O)cc1OCc1c(Cl)cccc1Cl (stereo not shown) | 35% |
| CC(=O)NCCNC(=O)c1cnc(N)c(OCc2c(Cl)cccc2Cl)c1 | 35% |
| CN(C)CC(C)(C)CNC(=O)c1cnc(N)c(OCc2c(Cl)cccc2Cl)c1 | 38% |
| Nc1ncc(C(=O)NCc2cc3cc[nH]c3cn2)cc1OCc1c(Cl)cccc1Cl | 28% |
| Nc1ncc(C(=O)NCC(O)CN2CCC(Cc3ccccc3)CC2)cc1OCc1c(Cl)cccc1Cl (stereo not shown) | 32% |
| Cc1ccc(F)c(CNC(=O)c2cnc(N)c(OCc3c(Cl)cccc3Cl)c2)c1F | 31% |
| Nc1ncc(C(=O)NCc2c(F)cccc2F)cc1OCc1c(Cl)cccc1Cl | 32% |
| Nc1ncc(C(=O)N2CCN(CC(=O)Nc3ccccn3)CC2)cc1OCc1c(Cl)cccc1Cl | 56% |
| Nc1ncc(C(=O)N2CCN(Cc3cccc4ccccc34)CC2)cc1OCc1c(Cl)cccc1Cl | 26% |
| CC(C)(O)c1ccc(CNC(=O)c2cnc(N)c(OCc3c(Cl)cccc3Cl)c2)cc1 | 24% |
| Nc1ncc(C(=O)N2CCCC2c2ccncc2)cc1OCc1c(Cl)cccc1Cl (stereo not shown) | 19% |
| Nc1ncc(C(=O)NCCc2nc3ccccc3s2)cc1OCc1c(Cl)cccc1Cl | 26% |
| Nc1ncc(C(=O)NCC2=CSC3=NCCN23)cc1OCc1c(Cl)cccc1Cl | 99% |
| Nc1ncc(C(=O)NC2CCCNC2=O)cc1OCc1c(Cl)cccc1Cl (stereo not shown) | 16% |
| Cc1cc2cc(CNC(=O)c3cnc(N)c(OCc4c(Cl)cccc4Cl)c3)ccc2[nH]1 | 20% |
| CN(C)C(CNC(=O)c1cnc(N)c(OCc2c(Cl)cccc2Cl)c1)c1cccnc1 (stereo not shown) | 18% |
| CN(CCS(C)(=O)=O)C(=O)c1cnc(N)c(OCc2c(Cl)cccc2Cl)c1 | 26% |
| Nc1ncc(C(=O)NCCC2CCOCC2)cc1OCc1c(Cl)cccc1Cl | 31% |
| Nc1ncc(C(=O)NC(CO)c2cccnc2)cc1OCc1c(Cl)cccc1Cl (stereo not shown) | 22% |
| Nc1ncc(C(=O)N2CCC(Cc3ccc(F)cc3)CC2)cc1OCc1c(Cl)cccc1Cl | 41% |

| Structure (SMILES) | inhibition at 1 µM |
| --- | --- |
| Nc1ncc(C(=O)NCc2ncccc2O)cc1OCc1c(Cl)cccc1Cl | 24% |
| CCCCOc1ccc(CNC(=O)c2cnc(N)c(OCc3c(Cl)cccc3Cl)c2)cc1 | 18% |
| Nc1ncc(C(=O)NCc2ccc(OC(F)F)cc2)cc1OCc1c(Cl)cccc1Cl | 26% |
| COc1ccc(C(CCO)NC(=O)c2cnc(N)c(OCc3c(Cl)cccc3Cl)c2)cc1 (stereo not shown) | 22% |
| Nc1ncc(C(=O)NCc2c(F)cccc2C(F)(F)F)cc1OCc1c(Cl)cccc1Cl | 33% |
| Nc1ncc(C(=O)NCc2ccc[nH]c2=O)cc1OCc1c(Cl)cccc1Cl | 16% |
| Cc1ccc2c(c1)C(NC(=O)c1cnc(N)c(OCc3c(Cl)cccc3Cl)c1)CCO2 (stereo not shown) | 17% |
| Nc1ncc(C(=O)N2CCC(COCc3ccccc3F)CC2)cc1OCc1c(Cl)cccc1Cl | 10% |
| Nc1ncc(C(=O)NCCC2CCC(=O)N2CCc2ccc(O)cc2)cc1OCc1c(Cl)cccc1Cl (stereo not shown) | 16% |
| Nc1ncc(C(=O)N2CCC(Cc3cccc(CO)c3)CC2)cc1OCc1c(Cl)cccc1Cl | 11% |
| NC(=O)c1ccc(CC2CCN(C(=O)c3cnc(N)c(OCc4c(Cl)cccc4Cl)c3)CC2)cc1 | 12% |
| CCN(CC)CC1(O)CCN(C(=O)c2cnc(N)c(OCc3c(Cl)cccc3Cl)c2)CC1 | 71% |
| CN(CCC1CCC(=O)N1CC(F)(F)F)C(=O)c1cnc(N)c(OCc2c(Cl)cccc2Cl)c1 (stereo not shown) | 25% |
| Nc1ncc(C(=O)N2CCC(O)(CCc3ccncc3)CC2)cc1OCc1c(Cl)cccc1Cl | 25% |
| Nc1ncc(C(=O)NCc2noc(C(=O)N3CCC(CO)CC3)n2)cc1OCc1c(Cl)cccc1Cl | 26% |
| Cc1noc([C@H]2CC[C@H](CNC(=O)c3cnc(N)c(OCc4c(Cl)cccc4Cl)c3)CC2)n1 | 3% |
| Nc1ncc(C(=O)NCc2noc(C(=O)N3CC[C@H](O)C3)n2)cc1OCc1c(Cl)cccc1Cl | 26% |
| Cc1nc[nH]c1CN1CCC2(CC1)CC(NC(=O)c1cnc(N)c(OCc3c(Cl)cccc3Cl)c1)CO2 (stereo not shown) | 30% |
| CCC(CC)CN1CCC2(CC1)CC(NC(=O)c1cnc(N)c(OCc3c(Cl)cccc3Cl)c1)CO2 (stereo not shown) | 74% |
| Nc1ncc(C(=O)NC2COC3(CCN(c4ncccn4)CC3)C2)cc1OCc1c(Cl)cccc1Cl (stereo not shown) | 21% |
| Cc1nc(CCNC(=O)c2cnc(N)c(OCc3c(Cl)cccc3Cl)c2)c[nH]1 | 23% |

The remaining lines, values ahead:

| inhibition at 1 µM | Structure (SMILES) |
| --- | --- |
| 39% | NC(=O)C1CCCN(C(=O)c2cnc(N)c(OCc3c(Cl)cccc3Cl)c2)C1 (stereo not shown) |
| 26% | Nc1ncc(C(=O)N2CCCN(Cc3ccc(F)cc3)CC2)cc1OCc1c(Cl)cccc1Cl |
| 22% | CCS(=O)(=O)N1CCN(C(=O)c2cnc(N)c(OCc3c(Cl)cccc3Cl)c2)CC1 |
| 26% | Nc1ncc(C(=O)N2CCC(N3CCCCC3=O)CC2)cc1OCc1c(Cl)cccc1Cl |
| 27% | Nc1ncc(C(=O)N2CCC3(CCNC3=O)CC2)cc1OCc1c(Cl)cccc1Cl |
| 31% | Nc1ncc(C(=O)N2CCNC(=O)CC2)cc1OCc1c(Cl)cccc1Cl |
| 47% | Nc1ncc(C(=O)N2CCCC(C(=O)N3CCCC3)C2)cc1OCc1c(Cl)cccc1Cl (stereo not shown) |
| 21% | Nc1ncc(C(=O)N2CCCC(C(=O)N3CCOCC3)C2)cc1OCc1c(Cl)cccc1Cl (stereo not shown) |
| 20% | COCCNC(=O)C1CCCN(C(=O)c2cnc(N)c(OCc3c(Cl)cccc3Cl)c2)C1 (stereo not shown) |
| 23% | CS(=O)(=O)C1CCN(C(=O)c2cnc(N)c(OCc3c(Cl)cccc3Cl)c2)C1 (stereo not shown) |
| 25% | CS(=O)(=O)CCN1CCN(C(=O)c2cnc(N)c(OCc3c(Cl)cccc3Cl)c2)CC1 |
| 24% | Nc1ncc(C(=O)N2CCN(CC(=O)N3CCCCC3)CC2)cc1OCc1c(Cl)cccc1Cl |
| 22% | Nc1ncc(C(=O)N2CCNC(=O)C2)cc1OCc1c(Cl)cccc1Cl |
| 16% | Nc1ncc(C(=O)N2CCCC(F)(F)C2)cc1OCc1c(Cl)cccc1Cl |
| 19% | CCN1CCCC(NC(=O)c2cnc(N)c(OCc3c(Cl)cccc3Cl)c2)C1 (stereo not shown) |
| 72% | Nc1ncc(C(=O)N2CCC(Cc3cnccn3)CC2)cc1OCc1c(Cl)cccc1Cl |
| 17% | Nc1ncc(C(=O)N2CCC3(CC2)CC(N2CCNC(=O)C2)CO3)cc1OCc1c(Cl)cccc1Cl (stereo not shown) |
| 28% | Nc1ncc(C(=O)N2CCC3(CC2)CC(N2CCC(O)CC2)CO3)cc1OCc1c(Cl)cccc1Cl (stereo not shown) |
| 25% | Nc1ncc(C(=O)N2CCCC(Cc3ncccn3)C2)cc1OCc1c(Cl)cccc1Cl (stereo not shown) |
| 26% | Nc1ncc(C(=O)N2CCC3(CC2)CC3C(=O)N2CCCCC2)cc1OCc1c(Cl)cccc1Cl (stereo not shown) |
| 27% | Nc1ncc(C(=O)N2CCc3nnc(CCN4CCOCC4)n3CC2)cc1OCc1c(Cl)cccc1Cl |
| 23% | COCC1CN(CC(N)=O)CCN(C(=O)c2cnc(N)c(OCc3c(Cl)cccc3Cl)c2)C1 (stereo not shown) |
| 17% | CCCN(CCO)C1CCCN(C(=O)c2cnc(N)c(OCc3c(Cl)cccc3Cl)c2)CC1 (stereo not shown) |
| 18% | Nc1ncc(C(=O)N2CCCC(N3CCOCC3)CC2)cc1OCc1c(Cl)cccc1Cl (stereo not shown) |
